This is an account of results in US20060240048A1 (priority 2002, published 2006).

In the assay the target is T1, human cannabinoid CB2 receptor (Homo sapiens, UniProt P34972).
T1 construct: expressed in transfected cells; host or cells: Saccharomyces cerevisiae strain MMY23
The assay is described as follows: Cannabinoid CB2 receptor agonist activity, yeast reporter assay (FDGlu fluorescence).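 On Emax: 100% equals maximal response of reference agonist HU210.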 The class given is cell-based. To be noted: for Emax: read-out: efficacy value (Emax) at the cloned human cannabinoid CB2 receptor.

A value given as a limit tells only on which side of the number the result lay.

T1 sequence (P34972 whole entry): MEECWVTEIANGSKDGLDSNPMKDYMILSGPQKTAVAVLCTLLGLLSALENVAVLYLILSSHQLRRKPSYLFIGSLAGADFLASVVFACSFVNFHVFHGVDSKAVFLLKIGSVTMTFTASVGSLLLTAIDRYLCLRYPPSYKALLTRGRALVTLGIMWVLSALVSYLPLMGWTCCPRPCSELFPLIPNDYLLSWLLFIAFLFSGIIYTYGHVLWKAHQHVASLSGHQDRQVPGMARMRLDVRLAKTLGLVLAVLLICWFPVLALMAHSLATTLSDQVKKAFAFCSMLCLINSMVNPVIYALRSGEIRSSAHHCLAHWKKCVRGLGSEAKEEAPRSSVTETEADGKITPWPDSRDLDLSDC

Broadly, the EC50 is the concentration that produces a half-maximal response. The low end stands for a more potent agent, the high end for a less potent agent. What is called Emax is the greatest response seen or fitted, relative to the assay's reference. As to `CC(C)c1cc(Nc2cc(F)ccc2Cl)ncc1C(=O)NCC1CCC1` [Example 267, 6-(2-Chloro-5-fluoro-phenylamino)-N-cyclobutytmethyl-4-isopropyl-nicotinamide], the 50% effective concentration (EC50) is less than 300 nM and the maximum response (Emax) is more than 50%. On to `CC(C)c1cc(Nc2ccc(C#N)c(Br)c2)ncc1C(=O)NCC1CCOCC1` [Example 239, 6-(3-Bromo-4-cyano-phenylamino)-4-isopropyl-N-(tetrahydro-pyran-4-ylmethyl)-nicotinamide], for which the EC50 was less than 300 nM and the maximum response (Emax) is more than 50%.

Consider `CCC(CC)CNC(=O)c1cnc(Nc2cccc(Cl)c2)cc1C(C)C` [Example 52, 6-(3-Chloro-phenylamino)-N-(2-ethyl-butyl)-4-isopropyl-nicotinamide], for which the Emax is more than 50%. Regarding `O=C(NC1CCC1)c1cnc(Nc2cccc(Cl)c2Cl)cc1C(F)(F)F` [Example 104, 6-(2,3-Dichloro-phenylamino)-N-(cyclobutyl)-4-trifluoromethyl-nicotinamide], the 50% effective concentration (EC50) is less than 300 nM and the maximal response (Emax) is more than 50%. `CC(C)c1nc(Nc2ccc(Cl)cc2Cl)ccc1C(=O)NCC1CCS(=O)(=O)C1` (stereo not shown) [Example 215, 6-(2,4-Dichloro-phenylamino)-N-(1,1-tetrahydrothiophen-3-ylmethyl)-2-isopropyl-nicotinamide]: the 50% effective concentration (EC50) was less than 300 nM and the Emax was more than 50%. In the same order, the values of `CC(C)c1nc(Nc2cccc(F)c2)ccc1C(=O)NCC1CCOCC1` [Example 218, 6-(3-Fluoro-phenylamino)-N-(tetrahydro-pyran-4-ylmethyl)-2-isopropyl-nicotinamide] are less than 300 nM and more than 50%. In the same order, the values of `CC(C)c1cc(Nc2cccc(C(F)(F)F)c2)ncc1C(=O)NCC1CCCCC1` [Example 14, N-Cyclohexylmethyl-4-isopropyl-6-(3-trifluoromethyl-phenylamino)-nicotinamide] are less than 300 nM and more than 50%. In the case of `O=C(NCC1CCCCC1)c1cnc(Nc2cccc(Cl)c2)cc1C(F)(F)F` [Example 1, 2-(3-Chlorophenylamino)-4-trifluoromethylpyridine-5-carboxylic acid cyclohexylmethyl amide], the maximal effect (Emax) is more than 50%. For the compound `CC(C)c1cc(Nc2ccc(Cl)cc2Cl)ncc1C(=O)NCC1CCC1` [Example 250, N-Cyclobutylmethyl-6-(2,4-dichloro-phenylamino)-4-isopropyl-nicotinamide], the EC50 was less than 300 nM and the Emax was more than 50%. In the same order, the values of `CC(C)c1cc(Nc2cccc(Br)c2)ncc1C(=O)NCC1CCC1` [Example 33, 6-(3-Bromo-phenylamino)-N-cyclobutylmethyl-4-isopropyl-nicotinamide] are less than 300 nM and more than 50%. For `O=C(NCC1CCS(=O)(=O)C1)c1cnc(Nc2cccc(Cl)c2)cc1C(F)(F)F` (stereo not shown) [Example 106, 6-(3-Chloro-phenylamino)-N-(1,1-dioxo-tetrahydrothiophen-3-ylmethyl)-4-trifluoromethyl-nicotinamide] the same measures were less than 300 nM and more than 50%.

With `O=C(NCC1CCCC1)c1cnc(Nc2cc(Cl)cc(Cl)c2)cc1C(F)(F)F` [Example 149, N-Cyclopentylmethyl-6-(3,5-dichloro-phenylamino)-4-tri-fluoromethyl-nicotinamide], the concentration for a half-maximal effect (EC50) was less than 300 nM and the Emax was more than 50%. For `O=C(NCC1CCCC1)c1cnc(Nc2cccc(F)c2)cc1C(F)(F)F` [Example 130, N-Cyclopentylmethyl-6-(3-fluoro-phenylamino)-4-tri-fluoromethyl-nicotinamide] the same measures were less than 300 nM and more than 50%. For `CC(C)c1cc(Nc2cccc(F)c2)ncc1C(=O)NCC1CCCCC1` [Example 10, N-Cyclohexylmethyl-6-(3-fluoro-phenylamino)-4-isopropyl-nicotinamide] the same measures were less than 300 nM and more than 50%.

For `O=C(NCC1CCOCC1)c1cnc(Nc2cccc(Cl)c2)cc1C(F)(F)F` [Example 111, N-(Tetrahydropyran-4-yl-methyl)-6-(3-chlorophenyl-amino)-4-trifluoromethyl-nicotinamide], the Emax was more than 50%. As to `CC(C)c1cc(Nc2cccc(C#N)c2)ncc1C(=O)NCC1CCC1` [Example 36, 6-(3-Cyano-phenylamino)-N-cyclobutylmethyl-4-isopropyl-nicotinamide], the half-maximal effective concentration (EC50) was less than 300 nM and the maximal effect (Emax) was more than 50%. For `CC(C)CNC(=O)c1cnc(Nc2cccc(Br)c2)cc1C(C)C` [Example 277, 6-(3-Bromo-phenylamino)-N-isobutyl-4-isopropyl-nicotinamide] the same measures were less than 300 nM and more than 50%.
